{
  "source": "patent US8546389B2",
  "about": "(priority 2010, dated 2013)",
  "key": {"1b (BK) NS5bΔ21": {"target": "1b (BK) NS5bΔ21 (Hepatitis C virus genotype 1b (isolate BK) (HCV), UniProt P26663)", "sequence (P26663 2420-2989)": "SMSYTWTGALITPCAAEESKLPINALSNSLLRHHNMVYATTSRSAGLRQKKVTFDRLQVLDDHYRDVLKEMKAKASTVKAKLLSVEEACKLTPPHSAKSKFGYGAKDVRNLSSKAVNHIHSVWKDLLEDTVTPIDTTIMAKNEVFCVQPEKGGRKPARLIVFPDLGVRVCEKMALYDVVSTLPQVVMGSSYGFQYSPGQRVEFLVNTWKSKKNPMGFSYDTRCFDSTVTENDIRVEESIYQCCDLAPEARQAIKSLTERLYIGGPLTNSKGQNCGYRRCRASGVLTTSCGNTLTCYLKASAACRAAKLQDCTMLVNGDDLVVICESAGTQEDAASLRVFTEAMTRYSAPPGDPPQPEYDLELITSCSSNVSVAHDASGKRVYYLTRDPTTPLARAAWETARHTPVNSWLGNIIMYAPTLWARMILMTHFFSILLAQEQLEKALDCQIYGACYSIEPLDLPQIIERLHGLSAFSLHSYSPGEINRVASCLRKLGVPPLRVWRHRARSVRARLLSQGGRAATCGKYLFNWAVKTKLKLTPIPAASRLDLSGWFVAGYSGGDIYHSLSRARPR", "assay": "HCV polymerase inhibition assay, genotype 1b", "format": "biochemical, HCV genotype 1b (BK)", "summary_of_the_method": "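NS5bΔ21 (50 nM) in Tris-HCl pH 7.5 with Mg2+/Mn2+, DTT, BSA, 0.5% DMSO, poly(rC) template, GTP at Km and ^33P-GTP; 3-fold compound dilutions. GTP-started reactions stopped with EDTA after 1 h; incorporation read by DEAE filter scintillation counting. IC50 by non-linear regression; 3a enzyme run the same way.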"}, "[1]": {"target": "genotype 3a (VRL-69) NS5bΔ21 polymerase (Hepatitis C virus genotype 3a, UniProt Q81258)", "sequence (Q81258 whole entry, looked up, stated change not applied)": "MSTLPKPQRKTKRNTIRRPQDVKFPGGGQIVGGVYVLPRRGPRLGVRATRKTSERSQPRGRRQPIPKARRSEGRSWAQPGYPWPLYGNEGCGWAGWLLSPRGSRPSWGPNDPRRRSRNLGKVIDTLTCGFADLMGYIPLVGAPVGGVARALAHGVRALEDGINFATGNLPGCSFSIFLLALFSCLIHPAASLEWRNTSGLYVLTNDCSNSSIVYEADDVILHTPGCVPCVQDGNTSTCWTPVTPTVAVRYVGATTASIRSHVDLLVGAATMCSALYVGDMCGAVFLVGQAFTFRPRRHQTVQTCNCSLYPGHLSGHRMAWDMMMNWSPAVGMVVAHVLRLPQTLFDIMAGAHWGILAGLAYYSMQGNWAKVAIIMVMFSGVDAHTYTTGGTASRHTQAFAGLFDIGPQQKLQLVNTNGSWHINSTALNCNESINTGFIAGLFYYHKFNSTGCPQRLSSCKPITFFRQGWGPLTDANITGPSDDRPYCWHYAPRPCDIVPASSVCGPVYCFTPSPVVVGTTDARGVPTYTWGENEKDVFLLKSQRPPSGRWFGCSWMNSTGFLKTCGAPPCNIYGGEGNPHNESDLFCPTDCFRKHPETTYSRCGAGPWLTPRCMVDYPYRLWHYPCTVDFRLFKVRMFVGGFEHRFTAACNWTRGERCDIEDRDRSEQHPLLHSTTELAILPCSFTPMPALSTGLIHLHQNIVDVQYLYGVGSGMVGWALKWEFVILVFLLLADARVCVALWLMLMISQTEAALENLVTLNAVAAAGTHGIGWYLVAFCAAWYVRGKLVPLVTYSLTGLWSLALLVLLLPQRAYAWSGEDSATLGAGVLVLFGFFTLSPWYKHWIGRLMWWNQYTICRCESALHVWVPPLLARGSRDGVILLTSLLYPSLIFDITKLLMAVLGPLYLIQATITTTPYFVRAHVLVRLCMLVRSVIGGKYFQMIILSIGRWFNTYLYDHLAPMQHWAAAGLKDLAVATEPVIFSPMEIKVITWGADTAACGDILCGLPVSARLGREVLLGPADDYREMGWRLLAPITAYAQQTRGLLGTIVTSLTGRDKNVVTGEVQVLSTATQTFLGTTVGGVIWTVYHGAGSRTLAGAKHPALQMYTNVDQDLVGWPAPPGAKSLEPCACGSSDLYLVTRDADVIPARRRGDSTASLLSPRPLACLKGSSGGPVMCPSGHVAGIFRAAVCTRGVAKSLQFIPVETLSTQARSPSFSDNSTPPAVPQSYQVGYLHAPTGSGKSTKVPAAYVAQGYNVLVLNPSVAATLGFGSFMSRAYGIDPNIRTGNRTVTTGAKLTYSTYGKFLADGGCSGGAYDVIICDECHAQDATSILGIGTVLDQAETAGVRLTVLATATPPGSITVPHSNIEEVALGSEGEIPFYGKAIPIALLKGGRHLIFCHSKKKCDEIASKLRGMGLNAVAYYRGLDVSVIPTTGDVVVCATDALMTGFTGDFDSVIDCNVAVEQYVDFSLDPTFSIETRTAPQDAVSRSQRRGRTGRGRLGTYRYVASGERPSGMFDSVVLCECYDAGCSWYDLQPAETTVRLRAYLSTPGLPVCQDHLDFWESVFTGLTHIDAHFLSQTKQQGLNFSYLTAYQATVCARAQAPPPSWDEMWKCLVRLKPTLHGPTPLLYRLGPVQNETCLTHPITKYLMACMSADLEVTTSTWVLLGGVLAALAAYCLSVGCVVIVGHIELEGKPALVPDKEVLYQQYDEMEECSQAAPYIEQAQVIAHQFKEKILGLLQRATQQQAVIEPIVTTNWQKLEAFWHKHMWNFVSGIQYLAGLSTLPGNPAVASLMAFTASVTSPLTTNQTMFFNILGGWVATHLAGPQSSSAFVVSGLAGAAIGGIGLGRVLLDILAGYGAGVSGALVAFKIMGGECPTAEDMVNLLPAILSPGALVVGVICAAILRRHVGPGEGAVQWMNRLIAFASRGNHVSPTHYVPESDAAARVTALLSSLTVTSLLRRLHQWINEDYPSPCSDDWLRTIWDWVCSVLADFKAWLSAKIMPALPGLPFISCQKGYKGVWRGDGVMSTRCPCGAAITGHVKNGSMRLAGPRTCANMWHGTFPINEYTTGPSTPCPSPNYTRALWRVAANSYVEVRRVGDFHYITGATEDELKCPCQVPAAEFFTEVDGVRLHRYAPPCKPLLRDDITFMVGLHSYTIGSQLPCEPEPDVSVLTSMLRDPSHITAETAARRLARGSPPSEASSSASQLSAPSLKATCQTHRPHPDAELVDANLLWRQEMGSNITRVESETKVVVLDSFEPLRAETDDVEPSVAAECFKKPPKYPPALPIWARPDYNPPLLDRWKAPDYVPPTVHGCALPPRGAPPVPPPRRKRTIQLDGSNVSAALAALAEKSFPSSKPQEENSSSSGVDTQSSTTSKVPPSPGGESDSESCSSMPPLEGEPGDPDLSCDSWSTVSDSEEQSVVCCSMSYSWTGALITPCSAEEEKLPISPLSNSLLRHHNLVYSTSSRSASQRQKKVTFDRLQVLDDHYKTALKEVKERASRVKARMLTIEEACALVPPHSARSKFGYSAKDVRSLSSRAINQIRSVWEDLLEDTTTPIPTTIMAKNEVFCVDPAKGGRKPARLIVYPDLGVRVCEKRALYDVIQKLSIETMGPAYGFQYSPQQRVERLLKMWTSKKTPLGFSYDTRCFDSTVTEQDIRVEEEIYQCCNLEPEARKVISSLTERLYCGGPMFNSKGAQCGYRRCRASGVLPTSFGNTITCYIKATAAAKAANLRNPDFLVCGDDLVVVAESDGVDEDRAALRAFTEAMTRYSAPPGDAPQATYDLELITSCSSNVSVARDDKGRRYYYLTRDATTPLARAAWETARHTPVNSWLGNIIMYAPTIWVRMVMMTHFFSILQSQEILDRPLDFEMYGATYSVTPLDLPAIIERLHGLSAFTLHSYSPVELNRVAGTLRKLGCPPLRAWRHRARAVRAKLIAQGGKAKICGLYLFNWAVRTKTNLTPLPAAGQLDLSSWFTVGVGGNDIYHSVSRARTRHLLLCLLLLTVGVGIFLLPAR", "assay": "HCV polymerase inhibition assay, genotype 3a", "format": "biochemical, HCV genotype 3a (VRL-69)", "conditions": "genotype 3a; read-out: 3a NS5b polymerase IC50", "method": "HCV polymerase reactions were carried out using a modified method of Howe et al., Antimicrobial Agents and Chemotherapy 2004 48(12): 4813-4821. Reactions contained a final concentration of, 0.5% DMSO, 50 nM, 1b (BK) NS5bΔ21, 20 mM Tris-HCl pH 7.5, 5 mM MgCl2, 5 mM MnCl2, 3 mM DTT, 0.05% BSA, 0.2 U/μL RNasin, 10 μg/mL Poly(rC) template, GTP (at Km) and 0.05 μCi/μL ^33P-GTP in a total reaction volume of 50 μL. Compounds were tested in a three fold dilution series, for example starting from 50 μM. Reactions were initiated with the addition of GTP and terminated after 1 hour with 50 μL ice cold 0.2 M EDTA. Terminated reactions were transferred to DEAE 96-well filter plates, unincorporated nucleotides washed from the filters and 50 μL scintillation fluid added prior to reading on a scintillation counter. Similarly, a genotype 3a (VRL-69) NS5bΔ21 polymerase enzyme assay was conducted using essentially the same method.\nThe compound concentration that reduced ^33P-GTP incorporation by 50% (IC50) was calculated using non-linear regression."}, "[2]": {"system": "genotype 1b (Con 1) subgenomic replicon cell line", "assay": "HCV replicon assay, genotype 1b (Renilla luciferase)", "format": "cell-based, HCV genotype 1b (Con 1)", "conditions": "Hepatitis C virus, genotype 1b replicon", "summary_of_the_method": "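Subgenomic replicon cells expressing Renilla luciferase (1b Con1; 1a and 2a lines by the same method) seeded at 7000 cells/well (5000 for 2a) without G418, exposed to 3-fold compound dilutions for 72 h at 37 °C. Luciferase activity measured; EC50 by non-linear regression.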"}, "[3]": {"system": "subgenomic genotype 1a replicon cell line", "assay": "HCV replicon assay, genotype 1a", "format": "cell-based, HCV genotype 1a", "conditions": "Hepatitis C virus", "method": "(§1) A genotype 1b (Con 1) subgenomic replicon cell line based on Blight et al., Science 2000 290: 1972-1974, modified to express a Renilla luciferase reporter gene was used to assess antiviral activity of test compounds. Cell cultures were maintained in a sub-confluent state in DMEM with glutamine, 10% heat-inactivated foetal bovine serum (FBS) and G418 (Geneticin®).\n(§2) For assay, cells were seeded at a density of 7000 cells/well into 96 well tissue culture trays in culture media lacking G418. Compounds were tested in a three fold dilution series, for example starting from 50 uM. After 72 hours incubation at 37° C. and 5% CO2, Renilla luciferase activity was quantified via the Promega Renilla Luciferase or Renilla-Glo™ Luciferase Assay Systems (Promega corporation. The same method was employed for replicon assays using subgenomic genotype 1a and 2a replicon cell lines with a seeding cell density of 5000 cells/well for the 2a cell lines.\n(§3) The compound concentration that reduced luciferase activity by 50% (EC50) was calculated using non-linear regression."}, "[4]": {"system": "subgenomic genotype 2a replicon cell line", "assay": "HCV replicon assay, genotype 2a", "format": "cell-based, HCV genotype 2a", "conditions": "Hepatitis C virus", "method": "as §1, §2, §3"}, "[5]": {"system": "genotype 1b (Con 1) subgenomic replicon cell line", "assay": "Combination studies in replicon cells (MacSynergy II)", "format": "cell-based, HCV genotype 1b (Con 1)", "method": "as §1, with “synergy” for “antiviral activity”\nFor assay, cells were seeded at a density of 7000 cells/well into 96 well tissue culture trays in culture media lacking G418. The compound concentration that reduced luciferase activity by 50% (EC50) was determined independently for each compound and used to set the range of concentrations for the combination experiments. […] The ratio of the 2 compounds tested remained fixed across the titration range. […] After 72 hours incubation at 37° C. and 5% CO2, Renilla luciferase activity was quantified via the Promega Renilla Luciferase Assay System.\nResults were analysed and levels of synergy assessed via generation of 3D synergy plots using MacSynergy™ II (Prichard, M. N., K. R. Aseltine, and C. Shipman, Jr. 1993. MacSynergy II. Version 1.0. User's manual. University of Michigan, Ann Arbor.). […] Compound 175 was selected as a representative example of the compounds of the invention for synergistic studies."}},
  "note": "pEC50, pIC50: −log10 of the molar value. Read-outs that look alike come from different tables or passages of the source.",
  "data": [
    {"smiles": "CCN(c1cc2nn(-c3ccc(Cl)cc3)c(C(=O)NC)c2cc1C1CC1)S(C)(=O)=O", "note": "[Compound 175]", "values": [
      {"measurement": "pIC50", "setting": "1b (BK) NS5bΔ21; 1b (BK) NS5bΔ21, 33P-GTP incorporation, read-out: 1b polymerase IC50 (range class)", "result": "> 6.00"},
      {"measurement": "pIC50", "setting": "1b (BK) NS5bΔ21; genotype 1b, read-out: 1b NS5b polymerase IC50", "result": 7.00},
      {"measurement": "pIC50", "setting": "[1]", "result": 7.52},
      {"measurement": "pEC50", "setting": "[2]; 72 hours, luciferase, read-out: genotype 1b EC50 (range class)", "result": "> 6.00"},
      {"measurement": "pEC50", "setting": "[2]; read-out: Replicon 1b EC50", "result": 7.22},
      {"measurement": "pEC50", "setting": "[3]", "result": 6.59},
      {"measurement": "pEC50", "setting": "[4]", "result": 7.10},
      {"measurement": "synergy in combination with a nucleoside NS5b inhibitor", "setting": "[5]; with 4-amino-7-(2-C-methyl-β-D-ribofuranosyl)-pyrrolo[2,1-f][1,2,4]triazine, FIG. 1, 95% confidence intervals", "result": "statistically significant synergy"},
      {"measurement": "synergy in combination with an NS5a inhibitor", "setting": "[5]; with BMS-790052, daclatasvir, FIG. 3, 95% confidence intervals", "result": "statistically significant synergy"},
      {"measurement": "synergy in combination with a NS3/4a protease inhibitor", "setting": "[5]; with VX-950, telaprevir, FIG. 2, 95% confidence intervals", "result": "statistically significant synergy"}
    ]}
  ]
}
